From patent US9546150B2, “Substituted quinazolin-4-ones for inhibiting ubiquitin specific protease 7” (HYBRIGENICS SA, priority 2011, dated 2017)

Columns and labels:
USP7 = USP7 (Homo sapiens, UniProt Q93009); assay: Time-dependent pre-incubation experiment with USP7, Ub-AMC; format: biochemical; design: Full-length wild-type human USP7 and its catalytic mutant; His tag (pFastBac-HT vector) (N); made in house; host or cells: Spodoptera frugiperda Sf9 (or High Five) insect cells, baculovirus
Protocol: To better understand the mechanism of inhibition of USP7 by our USP7-specific compounds, several experiments were performed. […] […].

USP5 = target: T1, USP5 (Homo sapiens, UniProt P45974); assay: HAUbVS competition assay in HEK293 cell lysates, USP5; format: biochemical; settings: 12.5-200 μM
T1 sequence (P45974 1-858): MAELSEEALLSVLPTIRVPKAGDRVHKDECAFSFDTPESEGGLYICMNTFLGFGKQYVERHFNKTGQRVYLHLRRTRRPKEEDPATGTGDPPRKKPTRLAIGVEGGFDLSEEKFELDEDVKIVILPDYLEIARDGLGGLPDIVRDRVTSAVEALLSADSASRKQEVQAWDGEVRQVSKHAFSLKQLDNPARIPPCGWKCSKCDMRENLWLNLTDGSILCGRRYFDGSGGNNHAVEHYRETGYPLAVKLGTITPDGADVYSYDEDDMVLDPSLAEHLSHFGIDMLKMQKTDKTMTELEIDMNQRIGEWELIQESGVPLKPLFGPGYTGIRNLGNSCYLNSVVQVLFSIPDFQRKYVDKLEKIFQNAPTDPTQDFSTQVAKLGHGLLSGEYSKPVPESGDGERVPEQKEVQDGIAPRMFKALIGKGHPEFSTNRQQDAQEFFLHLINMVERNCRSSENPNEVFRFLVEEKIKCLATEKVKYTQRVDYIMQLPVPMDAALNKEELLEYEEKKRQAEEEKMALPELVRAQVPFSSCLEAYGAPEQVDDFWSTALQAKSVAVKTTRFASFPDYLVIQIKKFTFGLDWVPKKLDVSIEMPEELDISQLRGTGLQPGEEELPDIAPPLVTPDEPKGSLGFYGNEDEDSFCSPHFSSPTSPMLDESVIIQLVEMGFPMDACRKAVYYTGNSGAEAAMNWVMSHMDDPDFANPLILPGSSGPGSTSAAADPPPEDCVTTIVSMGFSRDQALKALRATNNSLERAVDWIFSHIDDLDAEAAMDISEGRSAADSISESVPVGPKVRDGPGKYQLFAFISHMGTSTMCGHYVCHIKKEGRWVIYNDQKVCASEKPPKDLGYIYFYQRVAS
Protocol: The HA-Ub-VS probe (Hemagglutin tag-Ubiquitin-Vinyl Sulfone) was used in this study to directly visualize the activity of all deubiquitinating enzymes from native proteomes.
HEK293 cells were harvested and lysed on ice with a non denaturating buffer containing Tris pH7.4, 50 mM; NaCl, 150 mM; MgCl2, 5 mM; EDTA, 0.5 mM; DTT, 2 mM; ATP (adenosine triphosphate), 2 mM; NP40 (nonyl phenoxypolyethoxylethanol), 0.5% and glycerol, 10%. Samples were incubated at 4° C. for 1 hour and clarified. Proteins were then quantified by Bradford method (Bio-Rad Protein Assay). […] The ubiquitin labeling reaction was initiated by the addition of HA-Ub-VS (8 μg/ml) in labeling buffer (Tris pH7.6, 50 mM; MgCl2, 5 mM; EDTA, 0.5 mM; DTT, 2 mM; ATP, 2 mM; sucrose, 250 mM) and incubated at room temperature for 15 min. Samples were next heated at 100° C. for 10 minutes and briefly sonicated. They were resolved by SDS-polyacrylamide gel electrophoresis (SDS-PAGE), transferred to a nitrocellulose membrane and probed with antibodies against USP7, HA, UCH-L3, CYLD, USP8, USP5, USP10 and Stat3. […] Signals were detected by enhanced chemiluminescence (ECL; Amersham) according to the reagent manufacturer's instructions.

USP7, sequence (Q93009 whole entry): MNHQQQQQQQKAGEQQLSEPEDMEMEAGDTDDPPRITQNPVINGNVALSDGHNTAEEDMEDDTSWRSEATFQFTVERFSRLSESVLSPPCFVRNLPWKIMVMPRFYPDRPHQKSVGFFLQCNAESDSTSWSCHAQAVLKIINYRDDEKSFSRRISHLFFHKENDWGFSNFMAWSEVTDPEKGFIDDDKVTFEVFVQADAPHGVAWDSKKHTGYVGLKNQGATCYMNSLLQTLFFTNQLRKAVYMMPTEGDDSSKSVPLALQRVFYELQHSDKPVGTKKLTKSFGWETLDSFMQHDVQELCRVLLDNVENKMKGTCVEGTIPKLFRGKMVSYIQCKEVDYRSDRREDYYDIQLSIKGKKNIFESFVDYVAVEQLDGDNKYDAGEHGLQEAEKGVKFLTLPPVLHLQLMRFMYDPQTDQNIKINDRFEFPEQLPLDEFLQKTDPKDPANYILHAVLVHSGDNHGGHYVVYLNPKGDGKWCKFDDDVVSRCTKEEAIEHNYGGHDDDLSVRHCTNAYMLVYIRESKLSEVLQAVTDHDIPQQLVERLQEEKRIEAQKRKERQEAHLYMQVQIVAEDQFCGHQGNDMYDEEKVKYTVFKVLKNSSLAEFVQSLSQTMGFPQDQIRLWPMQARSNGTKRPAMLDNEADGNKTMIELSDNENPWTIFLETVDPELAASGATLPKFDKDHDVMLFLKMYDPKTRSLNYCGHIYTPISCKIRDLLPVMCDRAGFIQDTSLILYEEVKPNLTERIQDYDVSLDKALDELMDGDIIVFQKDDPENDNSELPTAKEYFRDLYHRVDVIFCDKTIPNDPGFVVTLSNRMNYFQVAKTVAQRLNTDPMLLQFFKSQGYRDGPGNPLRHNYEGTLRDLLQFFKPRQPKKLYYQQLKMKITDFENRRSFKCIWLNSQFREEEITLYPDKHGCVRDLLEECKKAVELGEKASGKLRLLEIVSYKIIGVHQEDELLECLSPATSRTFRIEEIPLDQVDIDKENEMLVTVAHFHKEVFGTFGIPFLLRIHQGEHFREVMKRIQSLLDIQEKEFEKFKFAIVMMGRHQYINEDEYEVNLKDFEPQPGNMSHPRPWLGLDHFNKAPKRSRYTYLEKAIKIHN

Row | time dependence of USP7 inhibition (USP7; 100 μM, pre-incubation 30 min, 1 h, 2 h, 4 h, 6 h) | inhibition at 100 µM (USP7; USP7 100 pM, pre-incubation 30 min to 6 h, Ub-AMC) [%] | blocking of HAUbVS labeling of USP5 (USP5) | Compound
1 | not a time-dependent inhibitor | ~75 |  | O=C(CCc1ccccc1)N1CCC(O)(Cn2cnc3cc(Cl)ccc3c2=O)CC1 [Example 2, 7-chloro-3-{[4-hydroxy-1-(3-phenylpropanoyl)piperidin-4-yl]methyl}-3,4-dihydroquinazolin-4-one]
2 |  |  | without any cross-reaction | CC(Cc1cccs1)C(=O)N1CCC(O)(Cn2cnc3ccccc3c2=O)CC1 (stereo not drawn) [Example 5, 3-({4-hydroxy-1-[2-methyl-3-(thiophen-2-yl)propanoyl]piperidin-4-yl}methyl)-3,4-dihydroquinazolin-4-one]
